{
  "source": "patent US10610590B2",
  "about": "“Electrochemical plasma activated aqueous chemotherapeutics” (Symbios Technologies, Inc., priority 2016, dated 2020)",
  "test_system": "MIA PaCa-2 cells",
  "experiment": "Alamar blue cell proliferation assay, pancreatic cancer cells",
  "assay_type": "cell-based, human",
  "conditions": "carboplatin 0.2, 1, 2.5, 5 and 10 μg/mL, 72 h incubation",
  "description": "All lines used were adherent human cell lines. • (i) Pancreatic cancer cell line: MIA PaCa-2 • Source: Available from ATCC (ATCC® CRL1420™) • Complete growth medium: Eagle's Minimum Essential Medium containing 5% fetal bovine serum and 5% cosmic calf serum • (ii) Human umbilical vein endothelial cells: HUVEC • Source: Available from ATCC (ATCC® PCS-100-010™) or Lonza (single or pooled donor) • Complete growth medium: EGM-2 BulletKit (Lonza) • (iii) Human foreskin fibroblasts: HFF-1 • Source: Available from ATCC (ATCC® SCRC-1041™) • Complete growth medium: Dulbecco's Modified Eagle's Medium containing 15% fetal bovine serum • (iv) Immortalized pancreas duct epithelial-like cells: hTERT-HPNE • Source: Available from ATCC (ATCC® CRL4023™) • Complete growth medium: Specialty Dulbecco's Modified Eagle's Medium composition, protocol available from ATCC • (v) Primary pancreatic stellate cells: Panc stellate • Source: Available from Applied Biological Materials (T4215) • Complete growth medium: Prigrow I containing 10% fetal bovine serum.\nEach cell line was adherent in a growth flask, incubated at 37° C. and 5% CO2; de-attached cell from growth flask using Trypsin-EDTA solution (0.25% Trypsin, 0.53 mM EDTA); and counted by Trypan blue staining standard protocol. […]\nA standard cell proliferation assay was used, the Alamar blue assay, to assess quantification of viable cells. […]",
  "data": [
    {"smiles": "N.N.O=C([O-])C1(C(=O)[O-])CCC1.[Pt+2]", "note": "[carboplatin]", "values": [
      {"measurement": "human pancreatic cancer cell proliferation (positive control)", "value": "dose dependent cell growth inhibition"}
    ]}
  ]
}
